#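 Where inhibition never reached the appropriate level, the endpoint shown equals the highest concentration tested. Otherwise, values were interpolated linearly from a five-concentration, 48-hour dose response in 96-well plates. TGI denotes the concentration required for complete inhibition of growth.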
# Columns and labels:
# Assay in all cases: inhibition of tumour cell growth, NCI panel, 48 h
# SF-539 CNS = system: SF-539 CNS
# DU-145 prostate = system: DU-145 prostate
# A549 NSCLC = system: A549 NSCLC
# PC-3 prostate = system: PC-3 prostate
# HCT-15 colon = system: HCT-15 colon
# NCI-H460 lung = system: NCI-H460 lung
# CCRF-CEM leukemia = system: CCRF-CEM leukemia
# K-562 leukemia = system: K-562 leukemia
# 786-0 renal = system: 786-0 renal
# MALME-3M melanoma = system: MALME-3M melanoma
# SK-MEL-2 melanoma = system: SK-MEL-2 melanoma
# A498 renal = system: A498 renal
# RPMI-8226 leukemia = system: RPMI-8226 leukemia
# HOP-62 NSCLC = system: HOP-62 NSCLC
# NCI-H522 lung = system: NCI-H522 lung
# SK-OV-3 ovarian = system: SK-OV-3 ovarian
# HS 578T breast = system: HS 578T breast
# SK-MEL-5 melanoma = system: SK-MEL-5 melanoma
# RXF 393 renal = system: RXF 393 renal
# SN12C renal = system: SN12C renal
# CAKI-1 renal = system: CAKI-1 renal
# MCF7 breast = system: MCF7 breast
# U251 CNS = system: U251 CNS
# SF-295 CNS = system: SF-295 CNS
# HT29 colon = system: HT29 colon
# HL-60(TB) leukemia = system: HL-60(TB) leukemia
# TK-10 renal = system: TK-10 renal
# UACC-257 melanoma = system: UACC-257 melanoma
# OVCAR-3 ovarian = system: OVCAR-3 ovarian
# M14 melanoma = system: M14 melanoma
# SW-620 colon = system: SW-620 colon
# HCC-2998 colon = system: HCC-2998 colon
# NCI-H23 lung = system: NCI-H23 lung
# NCI-H226 lung = system: NCI-H226 lung
# MDA-MB-231 breast = system: MDA-MB-231 breast
# BT-549 breast = system: BT-549 breast
# IGROV1 ovarian = system: IGROV1 ovarian
# SK-MEL-28 melanoma = system: SK-MEL-28 melanoma
# COLO 205 colon = system: COLO 205 colon
# UO-31 renal = system: UO-31 renal
# HCT-116 colon = system: HCT-116 colon
# OVCAR-5 ovarian = system: OVCAR-5 ovarian
# SF-268 CNS = system: SF-268 CNS
# SNB-75 CNS = system: SNB-75 CNS
# KM12 colon = system: KM12 colon
# MDA-N = system: MDA-N
# ACHN renal = system: ACHN renal
# LOX IMVI melanoma = system: LOX IMVI melanoma
# OVCAR-8 ovarian = system: OVCAR-8 ovarian
# NCI/ADR-RES ovarian = system: NCI/ADR-RES ovarian
# T-47D breast = system: T-47D breast
# MDA-MB-435 = system: MDA-MB-435
# SNB-19 CNS = system: SNB-19 CNS
# MOLT-4 leukemia = system: MOLT-4 leukemia
# UACC-62 melanoma = system: UACC-62 melanoma
# EKVX NSCLC = system: EKVX NSCLC
# HOP-92 NSCLC = system: HOP-92 NSCLC
# SR leukemia = system: SR leukemia
structure (smiles),measurement,setting,value
CC(C)C(=O)CC(Sc1ccc(N)cc1)c1ccccc1 (stereo not drawn),TGI,SF-539 CNS,63.5 µM
same,TGI,DU-145 prostate,> 100 µM
same,TGI,A549 NSCLC,> 100 µM
same,TGI,PC-3 prostate,> 100 µM
same,TGI,HCT-15 colon,> 100 µM
same,TGI,NCI-H460 lung,74.9 µM
same,TGI,CCRF-CEM leukemia,70.7 µM
same,TGI,K-562 leukemia,> 100 µM
same,TGI,786-0 renal,> 100 µM
same,TGI,MALME-3M melanoma,> 100 µM
same,TGI,SK-MEL-2 melanoma,61.8 µM
same,TGI,A498 renal,89.1 µM
same,TGI,RPMI-8226 leukemia,63.1 µM
same,TGI,HOP-62 NSCLC,83.9 µM
same,TGI,NCI-H522 lung,30.2 µM
same,TGI,SK-OV-3 ovarian,58.4 µM
same,TGI,HS 578T breast,67.6 µM
same,TGI,SK-MEL-5 melanoma,68.2 µM
same,TGI,RXF 393 renal,89.1 µM
same,TGI,SN12C renal,64.9 µM
same,TGI,CAKI-1 renal,> 100 µM
same,TGI,MCF7 breast,47.1 µM
same,TGI,U251 CNS,32.9 µM
same,TGI,SF-295 CNS,> 100 µM
same,TGI,HT29 colon,> 100 µM
same,TGI,HL-60(TB) leukemia,49.2 µM
same,TGI,TK-10 renal,> 100 µM
same,TGI,UACC-257 melanoma,> 100 µM
same,TGI,OVCAR-3 ovarian,67.8 µM
same,TGI,M14 melanoma,> 100 µM
same,TGI,SW-620 colon,34.8 µM
same,TGI,HCC-2998 colon,57.5 µM
same,TGI,NCI-H23 lung,58.2 µM
same,TGI,NCI-H226 lung,> 100 µM
same,TGI,MDA-MB-231 breast,60.5 µM
same,TGI,BT-549 breast,65.6 µM
same,TGI,IGROV1 ovarian,> 100 µM
same,TGI,SK-MEL-28 melanoma,> 100 µM
same,TGI,COLO 205 colon,> 100 µM
same,TGI,UO-31 renal,> 100 µM
same,TGI,HCT-116 colon,28.7 µM
same,TGI,OVCAR-5 ovarian,> 100 µM
same,TGI,SF-268 CNS,> 100 µM
same,TGI,SNB-75 CNS,> 100 µM
same,TGI,KM12 colon,> 100 µM
same,TGI,MDA-N,35.5 µM
same,TGI,ACHN renal,58.3 µM
same,TGI,LOX IMVI melanoma,33.8 µM
same,TGI,OVCAR-8 ovarian,96.9 µM
same,TGI,NCI/ADR-RES ovarian,99.6 µM
same,TGI,T-47D breast,71.6 µM
same,TGI,MDA-MB-435,39.8 µM
same,TGI,SNB-19 CNS,> 100 µM
same,TGI,MOLT-4 leukemia,> 100 µM
same,TGI,UACC-62 melanoma,72.1 µM
c1ccc2nc3c(nc2c1)sc1nc2ccccc2n13,TGI,SF-539 CNS,> 100 µM
same,TGI,DU-145 prostate,> 100 µM
same,TGI,A549 NSCLC,> 100 µM
same,TGI,PC-3 prostate,> 100 µM
same,TGI,HCT-15 colon,> 100 µM
same,TGI,NCI-H460 lung,> 100 µM
same,TGI,CCRF-CEM leukemia,> 100 µM
same,TGI,K-562 leukemia,> 100 µM
same,TGI,786-0 renal,> 100 µM
same,TGI,MALME-3M melanoma,> 100 µM
same,TGI,A498 renal,> 100 µM
same,TGI,RPMI-8226 leukemia,> 100 µM
same,TGI,SK-OV-3 ovarian,> 100 µM
same,TGI,HS 578T breast,> 100 µM
same,TGI,SK-MEL-5 melanoma,> 100 µM
same,TGI,RXF 393 renal,> 100 µM
same,TGI,SN12C renal,> 100 µM
same,TGI,CAKI-1 renal,> 100 µM
same,TGI,MCF7 breast,> 100 µM
same,TGI,U251 CNS,> 100 µM
same,TGI,SF-295 CNS,> 100 µM
same,TGI,HT29 colon,> 100 µM
same,TGI,HL-60(TB) leukemia,> 100 µM
same,TGI,TK-10 renal,> 100 µM
same,TGI,UACC-257 melanoma,> 100 µM
same,TGI,OVCAR-3 ovarian,> 100 µM
same,TGI,M14 melanoma,> 100 µM
same,TGI,HCC-2998 colon,> 100 µM
same,TGI,NCI-H23 lung,> 100 µM
same,TGI,EKVX NSCLC,> 100 µM
same,TGI,NCI-H226 lung,> 100 µM
same,TGI,MDA-MB-231 breast,> 100 µM
same,TGI,BT-549 breast,> 100 µM
same,TGI,IGROV1 ovarian,> 100 µM
same,TGI,COLO 205 colon,> 100 µM
same,TGI,UO-31 renal,> 100 µM
same,TGI,HCT-116 colon,> 100 µM
same,TGI,OVCAR-5 ovarian,> 100 µM
same,TGI,SF-268 CNS,> 100 µM
same,TGI,SNB-75 CNS,> 100 µM
same,TGI,KM12 colon,> 100 µM
same,TGI,MDA-N,> 100 µM
same,TGI,ACHN renal,> 100 µM
same,TGI,LOX IMVI melanoma,> 100 µM
same,TGI,HOP-92 NSCLC,> 100 µM
same,TGI,OVCAR-8 ovarian,> 100 µM
same,TGI,NCI/ADR-RES ovarian,> 100 µM
same,TGI,SR leukemia,> 100 µM
same,TGI,T-47D breast,> 100 µM
same,TGI,MDA-MB-435,> 100 µM
same,TGI,SNB-19 CNS,> 100 µM
same,TGI,MOLT-4 leukemia,> 100 µM
same,TGI,UACC-62 melanoma,> 100 µM

# Source: PubChem BioAssay (NCI)
